Our source for the remaining activity values is patent US20110152313A1 (MACQUARIE UNIVERSITY, priority 2008, published 2011).

Common to all, as to test: kinase binding screen (kinase-tagged T7 phage, qPCR), % Ctrl
Background: Quantitative PCR measures a nucleic acid by following its amplification.

One assay addresses CAMK2A (Homo sapiens, UniProt Q9UQM7). The method, boiled down:
(§1)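 Steps: grow T7 phage displaying kinase in BL21-derived E. coli; clarify lysate; combine with ligand-liganded, blocked beads and compound (single concentration, diluted from 40× DMSO stock); elute; quantify kinase by qPCR.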

Another assay concerns the target T1, CAMK4 (Homo sapiens, UniProt Q16566).
T1 sequence (Q16566 1-473): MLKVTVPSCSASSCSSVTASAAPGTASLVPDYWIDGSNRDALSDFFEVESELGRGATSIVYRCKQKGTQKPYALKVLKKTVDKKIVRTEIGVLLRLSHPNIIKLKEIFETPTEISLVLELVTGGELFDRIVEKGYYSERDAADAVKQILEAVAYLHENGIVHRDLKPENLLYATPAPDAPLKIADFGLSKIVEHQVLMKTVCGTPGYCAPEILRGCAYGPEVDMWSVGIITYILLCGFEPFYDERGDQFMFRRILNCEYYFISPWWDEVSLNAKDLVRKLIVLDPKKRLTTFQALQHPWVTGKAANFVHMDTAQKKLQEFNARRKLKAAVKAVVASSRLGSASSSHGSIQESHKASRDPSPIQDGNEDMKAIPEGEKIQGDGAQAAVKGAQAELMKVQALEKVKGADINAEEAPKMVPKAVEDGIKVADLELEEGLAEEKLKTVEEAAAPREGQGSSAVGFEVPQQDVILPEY
A digest of the protocol: as §1

The next assay concerns the target CDK7 (Homo sapiens, UniProt P50613). A digest of the protocol:
as §1

The next assay addresses DYRK1A (Homo sapiens, UniProt Q13627). The method, boiled down: as §1
The next assay has as its target T2, DYRK2 (Homo sapiens, UniProt Q92630).
T2 sequence (Q92630 1-601): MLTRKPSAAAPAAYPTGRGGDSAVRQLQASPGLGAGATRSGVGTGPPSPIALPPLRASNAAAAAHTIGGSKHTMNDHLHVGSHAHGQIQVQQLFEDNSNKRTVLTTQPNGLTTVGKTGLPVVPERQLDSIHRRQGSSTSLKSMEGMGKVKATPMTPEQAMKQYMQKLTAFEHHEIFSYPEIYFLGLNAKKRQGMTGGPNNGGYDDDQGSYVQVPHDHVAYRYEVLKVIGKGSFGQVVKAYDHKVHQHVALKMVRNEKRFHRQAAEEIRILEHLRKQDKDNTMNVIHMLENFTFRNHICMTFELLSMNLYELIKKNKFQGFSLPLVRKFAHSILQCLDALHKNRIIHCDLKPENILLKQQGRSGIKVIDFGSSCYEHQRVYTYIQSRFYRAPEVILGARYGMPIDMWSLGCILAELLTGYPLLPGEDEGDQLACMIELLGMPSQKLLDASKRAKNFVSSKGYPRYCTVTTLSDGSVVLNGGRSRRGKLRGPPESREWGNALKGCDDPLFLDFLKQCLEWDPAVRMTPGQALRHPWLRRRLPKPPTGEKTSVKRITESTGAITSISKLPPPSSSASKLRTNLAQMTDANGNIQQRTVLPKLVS
A digest of the protocol: as §1

Another assay deals with PIK4CB (Homo sapiens, UniProt Q9UBF8). The method, boiled down: as §1
Chain of PIK4CB (Q9UBF8 whole entry, species assumed): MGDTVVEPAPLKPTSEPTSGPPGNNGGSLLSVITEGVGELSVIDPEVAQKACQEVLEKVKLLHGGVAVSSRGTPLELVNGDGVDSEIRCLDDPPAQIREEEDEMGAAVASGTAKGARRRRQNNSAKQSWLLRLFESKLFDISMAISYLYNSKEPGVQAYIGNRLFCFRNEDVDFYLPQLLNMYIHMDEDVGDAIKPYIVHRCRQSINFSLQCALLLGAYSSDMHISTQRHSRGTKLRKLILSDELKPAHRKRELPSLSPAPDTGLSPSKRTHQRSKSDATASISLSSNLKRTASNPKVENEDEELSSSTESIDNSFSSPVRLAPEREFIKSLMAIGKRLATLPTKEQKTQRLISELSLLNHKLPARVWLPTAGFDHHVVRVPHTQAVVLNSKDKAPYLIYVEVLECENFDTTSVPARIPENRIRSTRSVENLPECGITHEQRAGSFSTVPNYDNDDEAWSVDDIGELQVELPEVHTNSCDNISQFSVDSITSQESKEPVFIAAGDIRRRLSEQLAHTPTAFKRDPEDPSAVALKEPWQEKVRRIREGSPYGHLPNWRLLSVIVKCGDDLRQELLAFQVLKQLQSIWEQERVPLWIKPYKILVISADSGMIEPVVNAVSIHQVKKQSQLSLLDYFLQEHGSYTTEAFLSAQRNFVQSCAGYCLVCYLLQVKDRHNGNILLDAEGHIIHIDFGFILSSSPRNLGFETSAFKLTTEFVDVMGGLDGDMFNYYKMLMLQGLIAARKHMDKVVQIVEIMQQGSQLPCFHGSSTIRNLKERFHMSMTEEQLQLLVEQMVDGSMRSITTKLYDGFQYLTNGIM
For the next assay, the target named is T3, PRKCE (Homo sapiens, UniProt Q02156).
T3 sequence (Q02156 1-737): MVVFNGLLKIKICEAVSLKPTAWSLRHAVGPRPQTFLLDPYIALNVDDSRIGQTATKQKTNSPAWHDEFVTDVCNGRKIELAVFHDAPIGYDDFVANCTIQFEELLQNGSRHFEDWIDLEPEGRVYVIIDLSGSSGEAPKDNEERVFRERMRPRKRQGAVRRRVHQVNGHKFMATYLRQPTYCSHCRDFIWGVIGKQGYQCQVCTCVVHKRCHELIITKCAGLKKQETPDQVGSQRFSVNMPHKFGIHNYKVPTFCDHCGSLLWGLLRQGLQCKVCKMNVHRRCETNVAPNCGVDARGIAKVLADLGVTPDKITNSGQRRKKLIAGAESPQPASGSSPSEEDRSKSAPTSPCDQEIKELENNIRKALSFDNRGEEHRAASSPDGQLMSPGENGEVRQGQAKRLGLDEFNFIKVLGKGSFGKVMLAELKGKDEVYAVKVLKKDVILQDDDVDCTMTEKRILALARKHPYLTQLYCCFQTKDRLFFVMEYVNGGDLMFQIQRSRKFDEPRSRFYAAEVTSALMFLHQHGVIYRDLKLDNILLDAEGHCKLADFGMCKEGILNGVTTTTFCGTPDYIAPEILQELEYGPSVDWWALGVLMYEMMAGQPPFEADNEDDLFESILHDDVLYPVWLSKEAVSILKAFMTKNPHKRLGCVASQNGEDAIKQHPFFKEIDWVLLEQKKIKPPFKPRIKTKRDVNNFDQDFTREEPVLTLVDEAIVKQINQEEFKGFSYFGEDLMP
The method, boiled down: as §1

The next assay concerns the target ROCK2 (Homo sapiens, UniProt O75116). A digest of the protocol:
as §1

Another assay concerns the target YANK2 (Homo sapiens, UniProt Q9NY57). A digest of the protocol:
as §1

Chain of ROCK2 (O75116 whole entry, species assumed): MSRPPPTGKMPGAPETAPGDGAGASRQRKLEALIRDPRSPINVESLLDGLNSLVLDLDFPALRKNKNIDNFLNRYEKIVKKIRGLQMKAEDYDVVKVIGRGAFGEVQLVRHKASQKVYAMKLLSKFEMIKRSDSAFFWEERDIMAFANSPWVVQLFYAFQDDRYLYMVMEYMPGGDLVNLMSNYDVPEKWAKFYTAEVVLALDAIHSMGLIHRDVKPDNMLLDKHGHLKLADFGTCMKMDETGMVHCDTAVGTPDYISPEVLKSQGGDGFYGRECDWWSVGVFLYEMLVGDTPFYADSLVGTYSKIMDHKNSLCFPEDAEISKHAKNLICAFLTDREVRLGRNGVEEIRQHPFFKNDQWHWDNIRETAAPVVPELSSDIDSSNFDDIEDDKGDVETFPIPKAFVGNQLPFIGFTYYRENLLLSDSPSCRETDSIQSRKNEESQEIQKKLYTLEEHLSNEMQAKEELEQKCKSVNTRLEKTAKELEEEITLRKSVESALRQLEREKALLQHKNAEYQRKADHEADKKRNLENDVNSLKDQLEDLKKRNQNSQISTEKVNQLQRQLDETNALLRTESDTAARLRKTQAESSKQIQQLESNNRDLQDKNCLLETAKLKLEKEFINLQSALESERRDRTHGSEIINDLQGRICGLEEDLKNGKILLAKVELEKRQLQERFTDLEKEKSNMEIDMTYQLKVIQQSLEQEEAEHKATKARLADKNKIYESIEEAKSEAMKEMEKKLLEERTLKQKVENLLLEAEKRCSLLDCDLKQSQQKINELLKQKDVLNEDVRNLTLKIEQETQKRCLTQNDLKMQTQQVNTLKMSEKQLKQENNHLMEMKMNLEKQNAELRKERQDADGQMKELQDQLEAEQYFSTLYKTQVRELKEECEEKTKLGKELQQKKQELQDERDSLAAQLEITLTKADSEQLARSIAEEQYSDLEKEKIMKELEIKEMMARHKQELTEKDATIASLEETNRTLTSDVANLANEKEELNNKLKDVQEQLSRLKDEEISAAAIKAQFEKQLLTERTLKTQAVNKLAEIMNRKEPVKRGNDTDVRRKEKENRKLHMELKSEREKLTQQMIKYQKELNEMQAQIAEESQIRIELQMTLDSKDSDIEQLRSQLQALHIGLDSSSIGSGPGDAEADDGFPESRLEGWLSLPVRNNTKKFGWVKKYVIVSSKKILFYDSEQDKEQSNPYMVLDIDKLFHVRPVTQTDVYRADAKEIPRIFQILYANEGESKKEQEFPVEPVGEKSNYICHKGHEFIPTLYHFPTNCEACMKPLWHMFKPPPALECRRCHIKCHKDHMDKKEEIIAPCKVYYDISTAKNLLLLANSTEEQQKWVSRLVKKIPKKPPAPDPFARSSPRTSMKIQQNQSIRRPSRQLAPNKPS
Chain of YANK2 (Q9NY57 whole entry): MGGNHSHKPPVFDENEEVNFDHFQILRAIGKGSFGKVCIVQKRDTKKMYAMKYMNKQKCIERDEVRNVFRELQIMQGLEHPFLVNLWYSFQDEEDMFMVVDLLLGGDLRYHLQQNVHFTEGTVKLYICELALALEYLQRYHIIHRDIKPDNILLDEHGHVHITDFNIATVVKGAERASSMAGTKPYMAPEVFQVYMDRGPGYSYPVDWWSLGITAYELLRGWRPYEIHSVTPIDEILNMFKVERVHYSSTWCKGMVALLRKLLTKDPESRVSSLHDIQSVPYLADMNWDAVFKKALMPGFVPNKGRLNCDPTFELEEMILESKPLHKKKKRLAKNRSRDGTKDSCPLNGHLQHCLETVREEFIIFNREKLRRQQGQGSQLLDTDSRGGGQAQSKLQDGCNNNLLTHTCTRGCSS
Chain of CDK7 (P50613 whole entry): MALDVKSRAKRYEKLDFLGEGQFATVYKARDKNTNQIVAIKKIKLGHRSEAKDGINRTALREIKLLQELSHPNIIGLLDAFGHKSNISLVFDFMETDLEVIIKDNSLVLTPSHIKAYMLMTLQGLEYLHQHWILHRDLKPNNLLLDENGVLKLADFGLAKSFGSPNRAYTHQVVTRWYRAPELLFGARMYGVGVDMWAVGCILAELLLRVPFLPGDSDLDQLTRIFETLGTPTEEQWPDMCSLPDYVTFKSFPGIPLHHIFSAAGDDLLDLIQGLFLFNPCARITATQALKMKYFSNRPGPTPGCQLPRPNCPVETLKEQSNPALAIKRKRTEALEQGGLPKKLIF
Chain of CAMK2A (Q9UQM7 whole entry): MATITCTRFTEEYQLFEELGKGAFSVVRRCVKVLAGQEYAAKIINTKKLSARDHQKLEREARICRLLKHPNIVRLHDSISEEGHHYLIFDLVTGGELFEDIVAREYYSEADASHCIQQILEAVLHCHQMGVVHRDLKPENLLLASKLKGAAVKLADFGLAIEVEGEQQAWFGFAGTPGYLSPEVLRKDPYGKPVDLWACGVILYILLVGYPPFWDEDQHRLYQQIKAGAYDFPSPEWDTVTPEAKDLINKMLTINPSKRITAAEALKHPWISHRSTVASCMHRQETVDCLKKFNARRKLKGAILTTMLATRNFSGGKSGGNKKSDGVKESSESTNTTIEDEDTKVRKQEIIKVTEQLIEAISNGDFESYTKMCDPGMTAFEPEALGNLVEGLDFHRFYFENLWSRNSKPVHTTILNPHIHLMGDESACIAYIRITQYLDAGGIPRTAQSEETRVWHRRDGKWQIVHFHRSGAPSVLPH

As to `Nc1nc2c(-c3ccccn3)nccc2[nH]1` [drawing 35, 4-(pyrid-2-yl)-1H-imidazo[4,5-c]pyridin-2-amine], the remaining activity at 1 µM on CAMK2A worked out at 100%; on CAMK4, 100%; at CDK7, 30%; at DYRK1A it was 36%; on DYRK2 it was 41%; on PIK4CB, 88%. The remaining activity at 1 µM is 20% at PRKCE, 45% at ROCK2 and 89% on YANK2.
With `Nc1nc2c(-c3cnc4ccccc4c3)nccc2[nH]1` [drawing 36, 4-(quinolin-3-yl)-1H-imidazo[4,5-c]pyridin-2-amine], the remaining activity at 1 µM amounted to 100% on CAMK2A; 100% on CAMK4; 100% at CDK7; 51% on DYRK1A; 56% on DYRK2; 37% at PIK4CB. Also, the remaining activity at 1 µM came to 100% at PRKCE, 100% at ROCK2 and 50% at YANK2.
As for `Nc1nc2c(-c3cc(Br)c(Br)[nH]3)nccc2[nH]1` [Ageladine A, ageladine A, reference compound], the remaining activity at 1 µM on CAMK2A was 100%; on CAMK4 it was 100%; on CDK7, 79%; at DYRK1A it was 38%; on DYRK2 it was 35%; on PIK4CB, 66%. The remaining activity at 1 µM at PRKCE was determined as 54%; at ROCK2, 65%; on YANK2, 93%. Besides, the remaining activity at 10 µM was 97% at CAMK2A (10 μM); 97% at CAMK4 (10 μM); 66% on CDK7 (10 μM); 4.7% at DYRK1A (10 μM); 4.4% at DYRK2 (10 μM); 50% at PIK4CB (10 μM). Also, the remaining activity at 10 µM at PRKCE (10 μM) is 100%; at ROCK2 (10 μM), 38%; on YANK2 (10 μM) it was 87%.

For orientation: remaining activity means the activity still measured, relative to the control. A lower remaining activity goes with little activity left.
